Several values for one entry are separate records, joined by “and”; a condition that tells them apart may be missing. Identical values can stand only once.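 Values below derive from 48-hour exposures of cells grown in 96-well plates, with endpoints linearly interpolated between the two concentrations bracketing the appropriate inhibition level. At the GI50, growth is halved. The concentration for full growth arrest is given as TGI.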 Where a SMILES comes first, the peptide text is derived from it. [ ]: non-standard residue; d: D form. The star is where a group is joined. ξ: configuration not given here. X16 = COC1=CC(=O)N(C(=O)C(O*)C(C)C)C1Cc1ccccc1; ξNMe2Val = CC(C)C(C(=O)*)N(C)C; NMeV = CN[CH](C(=O)O)C(C)C
Assays:
Assay in all cases: DTP human tumour cell line panel, 48 h
RXF 393 renal = tested on: RXF 393 renal
MALME-3M melanoma = tested on: MALME-3M melanoma
LXFL 529 NSCLC = tested on: LXFL 529 NSCLC
SN12C renal = tested on: SN12C renal
LOX IMVI melanoma = tested on: LOX IMVI melanoma
UACC-62 melanoma = tested on: UACC-62 melanoma
M19-MEL melanoma = tested on: M19-MEL melanoma
OVCAR-3 ovarian = tested on: OVCAR-3 ovarian
MDA-N = tested on: MDA-N
MDA-MB-435 = tested on: MDA-MB-435
MDA-MB-231 breast = tested on: MDA-MB-231 breast

On1c(-c2ccccc2)c(-c2c(-c3ccccc3)n(O)c3ccccc23)c2ccccc21
TGI (RXF 393 renal): > 100 µM
TGI (MALME-3M melanoma): 79.7 µM
TGI (LXFL 529 NSCLC): 20 µM
TGI (SN12C renal): > 100 µM
TGI (LOX IMVI melanoma): 73.2 µM
TGI (UACC-62 melanoma): > 100 µM
TGI (M19-MEL melanoma): > 100 µM
TGI (OVCAR-3 ovarian): > 100 µM

COC(=O)/C(=C/c1ccc(OC)cc1)C(C(=O)O)=C(C)C
TGI (RXF 393 renal): > 100 µM
TGI (MALME-3M melanoma): > 100 µM
TGI (LXFL 529 NSCLC): > 100 µM
TGI (SN12C renal): > 100 µM
TGI (LOX IMVI melanoma): > 100 µM
TGI (UACC-62 melanoma): > 100 µM
TGI (M19-MEL melanoma): > 100 µM
TGI (OVCAR-3 ovarian): > 100 µM

CN(C)[C@@H]1C(=O)C(C(N)=O)=C(O)[C@@]2(O)C(=O)C3=C(O)c4c(O)cccc4C[C@H]3C[C@@H]12
TGI (RXF 393 renal): 3.11 µM
TGI (MALME-3M melanoma): 2.92 µM
TGI (LXFL 529 NSCLC): 3.88 µM
TGI (UACC-62 melanoma): 3.14 µM
TGI (M19-MEL melanoma): 3.12 µM

O=c1[nH]cnc2c1nnn2CCCn1nnc2c(=O)[nH]cnc21
TGI (RXF 393 renal): > 100 µM
TGI (LXFL 529 NSCLC): > 100 µM
TGI (SN12C renal): > 100 µM
TGI (LOX IMVI melanoma): > 100 µM
TGI (UACC-62 melanoma): > 100 µM
TGI (M19-MEL melanoma): > 100 µM
TGI (OVCAR-3 ovarian): > 100 µM

OCC(O)COc1ccc(Br)cc1 (stereo not drawn)
TGI (RXF 393 renal): > 100 µM
TGI (MALME-3M melanoma): > 100 µM
TGI (LXFL 529 NSCLC): > 100 µM
TGI (SN12C renal): > 100 µM
TGI (LOX IMVI melanoma): > 100 µM
TGI (UACC-62 melanoma): > 100 µM
TGI (OVCAR-3 ovarian): > 100 µM

COC1/C=C\C=C(/C)C(=O)NC2=CC(=O)C(NCCCl)=C(CC(C)CC(OC)C(O)C(C)/C=C(/C)C1OC(N)=O)C2=O (stereo not drawn)
TGI (MDA-N): 12.3 µM
TGI (RXF 393 renal): 1.2 µM
TGI (MALME-3M melanoma): 1.48 µM
TGI (LXFL 529 NSCLC): 13.9 µM
TGI (MDA-MB-435): 3.72 µM
TGI (SN12C renal): 2.8 µM
TGI (LOX IMVI melanoma): 0.575 µM
TGI (UACC-62 melanoma): 1.33 µM
TGI (M19-MEL melanoma): 1.57 µM
TGI (OVCAR-3 ovarian): 8.4 µM
TGI (MDA-MB-231 breast): 20.4 µM

O=C(NCCNCCO)N/N=C/c1cccc([N+](=O)[O-])c1
TGI (RXF 393 renal): > 100 µM
TGI (MALME-3M melanoma): > 100 µM
TGI (LXFL 529 NSCLC): > 100 µM
TGI (SN12C renal): > 100 µM
TGI (LOX IMVI melanoma): > 100 µM
TGI (UACC-62 melanoma): > 100 µM
TGI (M19-MEL melanoma): > 100 µM
TGI (OVCAR-3 ovarian): > 100 µM

NC1=CN(CCCO)C2=N/C(=C\c3ccco3)C(=O)N12
TGI (MDA-N): > 100 µM
TGI (RXF 393 renal): > 100 µM
TGI (MALME-3M melanoma): > 100 µM
TGI (MDA-MB-435): > 100 µM
TGI (SN12C renal): > 100 µM
TGI (LOX IMVI melanoma): > 100 µM
TGI (UACC-62 melanoma): > 100 µM
TGI (OVCAR-3 ovarian): > 100 µM
TGI (MDA-MB-231 breast): > 100 µM

CCOC(=O)c1nc2c3c(ncn2n1)Oc1c(c(-c2ccccc2)nn1-c1ccccc1)C3c1ccc(OC)c(OC)c1 (stereo not drawn)
TGI (MDA-N): > 100 µM
TGI (RXF 393 renal): 91.4 µM
TGI (MALME-3M melanoma): > 100 µM
TGI (MDA-MB-435): > 100 µM
TGI (SN12C renal): > 100 µM
TGI (LOX IMVI melanoma): > 100 µM
TGI (UACC-62 melanoma): > 100 µM
TGI (OVCAR-3 ovarian): > 100 µM
TGI (MDA-MB-231 breast): > 100 µM

N#Cc1c(-c2ccco2)c2c(n(C3OC(CO)C(O)C(O)C3O)c1=S)CCCC2 (stereo not drawn)
TGI (MDA-N): > 100 µM
TGI (RXF 393 renal): > 100 µM
TGI (MALME-3M melanoma): > 100 µM
TGI (MDA-MB-435): > 100 µM
TGI (SN12C renal): > 100 µM
TGI (LOX IMVI melanoma): > 100 µM
TGI (UACC-62 melanoma): > 100 µM
TGI (OVCAR-3 ovarian): > 100 µM
TGI (MDA-MB-231 breast): > 100 µM

CS(=O)(=O)NNS(=O)(=O)c1ccc(Br)cc1
TGI (RXF 393 renal): > 100 µM
TGI (MALME-3M melanoma): > 100 µM
TGI (LXFL 529 NSCLC): > 100 µM
TGI (LOX IMVI melanoma): > 100 µM
TGI (UACC-62 melanoma): > 100 µM
TGI (M19-MEL melanoma): > 100 µM

CN(C)CC1CCC/C(=C\c2ccc(N(C)C)cc2)C1=O (stereo not drawn)
TGI (MDA-N): 19.6 µM
TGI (RXF 393 renal): 21.2 µM
TGI (MALME-3M melanoma): 24.5 µM
TGI (MDA-MB-435): 17.4 µM
TGI (SN12C renal): 29.6 µM
TGI (LOX IMVI melanoma): 3.16 µM
TGI (UACC-62 melanoma): 29.2 µM
TGI (OVCAR-3 ovarian): 9.36 µM
TGI (MDA-MB-231 breast): 15.7 µM

Cc1ncc([N+](=O)[O-])n1CCN(C)CCCCn1ccnc1[N+](=O)[O-]
TGI (MDA-N): > 100 µM
TGI (RXF 393 renal): > 100 µM
TGI (MALME-3M melanoma): > 100 µM
TGI (MDA-MB-435): > 100 µM
TGI (SN12C renal): > 100 µM
TGI (LOX IMVI melanoma): > 100 µM
TGI (UACC-62 melanoma): > 100 µM
TGI (OVCAR-3 ovarian): > 100 µM
TGI (MDA-MB-231 breast): > 100 µM

O=[N+]([O-])/C(C(Cl)=C(Cl)Cl)=C1\Nc2ccccc2O1
TGI (MDA-N): > 100 µM
TGI (RXF 393 renal): > 100 µM
TGI (MALME-3M melanoma): > 100 µM
TGI (MDA-MB-435): > 100 µM
TGI (SN12C renal): > 100 µM
TGI (LOX IMVI melanoma): > 100 µM
TGI (UACC-62 melanoma): > 100 µM
TGI (OVCAR-3 ovarian): 63.6 µM
TGI (MDA-MB-231 breast): > 100 µM

COC1=CC(=O)N(C(=O)C(OC(=O)C2CCCN2C(=O)C2CCCN2C(=O)C(C(C)C)N(C)C(=O)C(NC(=O)C(C(C)C)N(C)C)C(C)C)C(C)C)C1Cc1ccccc1 (stereo not drawn) (ξNMe2Val-V[NMeV]PP-X16; configuration not given here)
TGI (MDA-N): 0.000275 µM
GI50 (RXF 393 renal): < 0.0004 µM
GI50 (MALME-3M melanoma): < 0.0004 µM
TGI (MALME-3M melanoma): > 4 µM
TGI (MDA-MB-435): 0.000576 µM
GI50 (SN12C renal): < 0.0004 µM
GI50 (LOX IMVI melanoma): < 0.0004 µM
TGI (LOX IMVI melanoma): > 4 µM
GI50 (UACC-62 melanoma): < 0.0004 µM
TGI (UACC-62 melanoma): > 4 µM
GI50 (M19-MEL melanoma): < 0.0004 µM
TGI (M19-MEL melanoma): > 4 µM
GI50 (OVCAR-3 ovarian): < 0.0004 µM
TGI (OVCAR-3 ovarian): 0.00383 µM and < 0.0004 µM

Source: PubChem BioAssay (NCI)
